From PubChem BioAssay (NCI)
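GI50 = concentration required for 50% inhibition of growth. TGI marks complete inhibition of growth.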

What was measured:
Test in all cases: growth of human tumour cells (NCI), 384-well format
786-0 renal = tested on: 786-0 renal
A498 renal = tested on: A498 renal
A549 NSCLC = tested on: A549 NSCLC
ACHN renal = tested on: ACHN renal
BT-549 breast = tested on: BT-549 breast
CAKI-1 renal = tested on: CAKI-1 renal
CCRF-CEM leukemia = tested on: CCRF-CEM leukemia
COLO 205 colon = tested on: COLO 205 colon
DU-145 prostate = tested on: DU-145 prostate
EKVX NSCLC = tested on: EKVX NSCLC
HCC-2998 colon = tested on: HCC-2998 colon
HCT-116 colon = tested on: HCT-116 colon
HCT-15 colon = tested on: HCT-15 colon
HL-60(TB) leukemia = tested on: HL-60(TB) leukemia
HOP-62 NSCLC = tested on: HOP-62 NSCLC
HOP-92 NSCLC = tested on: HOP-92 NSCLC
HT29 colon = tested on: HT29 colon
IGROV1 ovarian = tested on: IGROV1 ovarian
K-562 leukemia = tested on: K-562 leukemia
KM12 colon = tested on: KM12 colon
LOX IMVI melanoma = tested on: LOX IMVI melanoma
M14 melanoma = tested on: M14 melanoma
MALME-3M melanoma = tested on: MALME-3M melanoma
MCF7 breast = tested on: MCF7 breast
MDA-MB-231 breast = tested on: MDA-MB-231 breast
MDA-MB-435 melanoma = tested on: MDA-MB-435 melanoma
MDA-MB-468 breast = tested on: MDA-MB-468 breast
MOLT-4 leukemia = tested on: MOLT-4 leukemia
NCI-H226 lung = tested on: NCI-H226 lung
NCI-H23 lung = tested on: NCI-H23 lung
NCI-H322M lung = tested on: NCI-H322M lung
NCI-H460 NSCLC = tested on: NCI-H460 NSCLC
NCI-H522 lung = tested on: NCI-H522 lung
NCI/ADR-RES ovarian = tested on: NCI/ADR-RES ovarian
OVCAR-3 ovarian = tested on: OVCAR-3 ovarian
OVCAR-4 ovarian = tested on: OVCAR-4 ovarian
OVCAR-5 ovarian = tested on: OVCAR-5 ovarian
OVCAR-8 ovarian = tested on: OVCAR-8 ovarian
PC-3 prostate = tested on: PC-3 prostate
RPMI-8226 leukemia = tested on: RPMI-8226 leukemia
RXF 393 renal = tested on: RXF 393 renal
SF-268 CNS = tested on: SF-268 CNS
SF-295 CNS = tested on: SF-295 CNS
SF-539 CNS = tested on: SF-539 CNS
SK-MEL-2 melanoma = tested on: SK-MEL-2 melanoma
SK-MEL-28 melanoma = tested on: SK-MEL-28 melanoma
SK-MEL-5 melanoma = tested on: SK-MEL-5 melanoma
SK-OV-3 ovarian = tested on: SK-OV-3 ovarian
SN12C renal = tested on: SN12C renal
SNB-19 CNS = tested on: SNB-19 CNS
SNB-75 CNS = tested on: SNB-75 CNS
SR leukemia = tested on: SR leukemia
SW-620 colon = tested on: SW-620 colon
T-47D breast = tested on: T-47D breast
TK-10 renal = tested on: TK-10 renal
U251 glioblastoma = tested on: U251 glioblastoma
UACC-257 melanoma = tested on: UACC-257 melanoma
UACC-62 melanoma = tested on: UACC-62 melanoma
UO-31 renal = tested on: UO-31 renal

Molecule `O=C1Cc2cc(C(=O)NC3C[C@H]4CC[C@@H](C3)N4S(=O)(=O)CC3CCN(CCCC(F)(F)F)CC3)c(Cl)cc2N1` (stereo partly drawn) has a GI50 ([…]-0 renal) of over 100 µM, a TGI (786-0 renal) of over 100 µM and a GI50 (A498 renal) of over 100 µM. For the same molecule, the TGI (A498 renal) was over 100 µM, the GI50 (A549 NSCLC) was over 51 µM and the TGI (A549 NSCLC) was over 81 µM. For the same molecule, the GI50 (ACHN renal) was over 50.1 µM, the TGI (ACHN renal) was over 77.9 µM and the GI50 (BT-549 breast) was over 49.1 µM. For the same molecule, the TGI (BT-549 breast) was over 73.8 µM, the GI50 (CAKI-1 renal) was over 46.2 µM and the TGI (CAKI-1 renal) was over 65.5 µM. It also gave a GI50 (CCRF-CEM leukemia) of over 43.8 µM, a TGI (CCRF-CEM leukemia) of over 57.7 µM and a GI50 (COLO 205 colon) of over 78 µM. For the same molecule, the TGI (COLO 205 colon) was over 100 µM, the GI50 (DU-145 prostate) was over 51.2 µM and the TGI (DU-145 prostate) was over 80 µM. For the same molecule, the GI50 (EKVX NSCLC) was over 100 µM, the TGI (EKVX NSCLC) was over 100 µM and the GI50 (HCC-2998 colon) was over 100 µM. It also gave a TGI (HCC-2998 colon) of over 100 µM, a GI50 (HCT-116 colon) of over 42 µM and a TGI (HCT-116 colon) of over 56.5 µM. For the same molecule, the GI50 (HCT-15 colon) was over 46.3 µM, the TGI (HCT-15 colon) was over 64.5 µM and the GI50 (HL-60(TB) leukemia) was over 46.1 µM. It also gave a TGI (HL-60(TB) leukemia) of over 60.4 µM, a GI50 (HOP-62 NSCLC) of over 49.6 µM and a TGI (HOP-62 NSCLC) of over 73.6 µM. It also gave a GI50 (HOP-92 NSCLC) of over 100 µM, a TGI (HOP-92 NSCLC) of over 100 µM and a GI50 (HT29 colon) of over 100 µM. For the same molecule, the TGI (HT29 colon) was over 100 µM, the GI50 (IGROV1 ovarian) was over 57.9 µM and the TGI (IGROV1 ovarian) was over 100 µM. The GI50 (K-562 leukemia) was over 42.3 µM, the TGI (K-562 leukemia) was over 56.5 µM and the GI50 (KM12 colon) was over 100 µM. For the same molecule, the TGI (KM12 colon) was over 100 µM, the GI50 (LOX IMVI melanoma) was 19.2 µM and the TGI (LOX IMVI melanoma) was 33.8 µM. For the same molecule, the GI50 (M14 melanoma) was over 100 µM, the TGI (M14 melanoma) was over 100 µM and the GI50 (MALME-3M melanoma) was over 100 µM. For the same molecule, the TGI (MALME-3M melanoma) was over 100 µM, the GI50 (MCF7 breast) was over 100 µM and the TGI (MCF7 breast) was over 100 µM. It also gave a GI50 (MDA-MB-231 breast) of over 100 µM, a TGI (MDA-MB-231 breast) of over 100 µM and a GI50 (MDA-MB-435 melanoma) of over 100 µM. The TGI (MDA-MB-435 melanoma) was over 100 µM, the GI50 (MDA-MB-468 breast) was 25.5 µM and the TGI (MDA-MB-468 breast) was 57.7 µM. The GI50 (MOLT-4 leukemia) was over 67 µM, the TGI (MOLT-4 leukemia) was over 100 µM and the GI50 (NCI-H226 lung) was over 100 µM. For the same molecule, the TGI (NCI-H226 lung) was over 100 µM, the GI50 (NCI-H23 lung) was over 52.9 µM and the TGI (NCI-H23 lung) was over 71.2 µM. For the same molecule, the GI50 (NCI-H322M lung) was over 100 µM, the TGI (NCI-H322M lung) was over 100 µM and the GI50 (NCI-H460 NSCLC) was over 100 µM. It also gave a TGI (NCI-H460 NSCLC) of over 100 µM, a GI50 (NCI-H522 lung) of over 44.7 µM and a TGI (NCI-H522 lung) of over 58.9 µM. It also gave a GI50 (NCI/ADR-RES ovarian) of over 100 µM, a TGI (NCI/ADR-RES ovarian) of over 100 µM and a GI50 (OVCAR-3 ovarian) of over 45 µM. The TGI (OVCAR-3 ovarian) was over 63.5 µM, the GI50 (OVCAR-4 ovarian) was over 100 µM and the TGI (OVCAR-4 ovarian) was over 100 µM. It also gave a GI50 (OVCAR-5 ovarian) of over 49.9 µM, a TGI (OVCAR-5 ovarian) of over 73.1 µM and a GI50 (OVCAR-8 ovarian) of over 44.1 µM. The TGI (OVCAR-8 ovarian) was over 61.9 µM, the GI50 (PC-3 prostate) was over 52.1 µM and the TGI (PC-3 prostate) was over 74.7 µM. The GI50 (RPMI-8226 leukemia) was over 45.6 µM, the TGI (RPMI-8226 leukemia) was over 59.3 µM and the GI50 (RXF 393 renal) was over 78.5 µM. For the same molecule, the TGI (RXF 393 renal) was over 100 µM, the GI50 (SF-268 CNS) was over 100 µM and the TGI (SF-268 CNS) was over 100 µM. For the same molecule, the GI50 (SF-295 CNS) was over 100 µM, the TGI (SF-295 CNS) was over 100 µM and the GI50 (SF-539 CNS) was over 100 µM. The TGI (SF-539 CNS) was over 100 µM, the GI50 (SK-MEL-2 melanoma) was over 87 µM and the TGI (SK-MEL-2 melanoma) was over 100 µM. For the same molecule, the GI50 (SK-MEL-28 melanoma) was over 100 µM, the TGI (SK-MEL-28 melanoma) was over 100 µM and the GI50 (SK-MEL-5 melanoma) was over 43.5 µM. It also gave a TGI (SK-MEL-5 melanoma) of over 57.5 µM, a GI50 (SK-OV-3 ovarian) of over 47.3 µM and a TGI (SK-OV-3 ovarian) of over 72.8 µM. The GI50 (SN12C renal) was over 62.4 µM, the TGI (SN12C renal) was over 100 µM and the GI50 (SNB-19 CNS) was over 49.8 µM. The TGI (SNB-19 CNS) was over 74.9 µM, the GI50 (SNB-75 CNS) was over 100 µM and the TGI (SNB-75 CNS) was over 100 µM. It also gave a GI50 (SR leukemia) of 38.7 µM, a TGI (SR leukemia) of 99.3 µM and a GI50 (SW-620 colon) of over 58.1 µM. It also gave a TGI (SW-620 colon) of over 100 µM, a GI50 (T-47D breast) of 60.3 µM and a TGI (T-47D breast) of over 100 µM. The GI50 (TK-10 renal) was over 46.4 µM, the TGI (TK-10 renal) was over 65.3 µM and the GI50 (U251 glioblastoma) was over 100 µM. For the same molecule, the TGI (U251 glioblastoma) was over 100 µM, the GI50 (UACC-257 melanoma) was over 100 µM and the TGI (UACC-257 melanoma) was over 100 µM. For the same molecule, the GI50 (UACC-62 melanoma) was over 100 µM, the TGI (UACC-62 melanoma) was over 100 µM and the GI50 (UO-31 renal) was 23.2 µM. For the same molecule, the TGI (UO-31 renal) was 47.5 µM.
